Source: PMC11345828 (Journal of Medicinal Chemistry, 2024)
≈ marks a conversion by molar mass, not a printed value.

Legend:
[1] = A427 NSCLC subcutaneous xenograft model; format: in vivo, mouse; conditions: female, CB17/Icr-Prkdc(scid)/IcrCrl, mouse, in vivo, single agent
Procedure: (§1) After fixation, tumor samples were embedded in paraffin blocks. Two-μm thick sections of each FFPE-block were prepared on a microtome, placed on glass slides and dewaxed. H&E staining was performed using Papanicolaous Solution 1a Harris′ Hematoxylin solution (Merck) and Shandon Eosin Y aqueous (Thermo) on the Gemini stainer (Thermo). […] Analysis was performed using HALO image analysis software 2.1 (Indica Laboratories). Quantification of Ki67 positivity was performed using multiplex IHC module with integrated AI based nucleus detection and a threshold set for positive nuclei was used. Viable tumor area was calculated from H&E staining using AI based classifier Densenet V2.
(§2) Female BomTac:NMRI-Foxn1nu mice and CB17/Icr-Prkdc(scid)/IcrCrl and were obtained from Taconic Denmark at an age of 6–8 weeks. After arrival of the local animal facility at Boehringer Ingelheim RCV GmbH & Co KG mice were allowed to adjust to housing conditions at least for 5 days before the start of the experiment. Mice were group-housed under pathogen-free and controlled environmental conditions and handled according to the institutional, governmental and European Union guidelines (Austrian Animal Protection Laws, GV-SOLAS and FELASA guidelines). Animal studies were approved by the internal ethics committee and the local governmental committee. To establish subcutaneous tumors mice were injected with 5 × 10^6 A427cells in Matrigel (CB17/Icr-Prkdc(scid)/IcrCrl), 1 × 10^6 NCI-H1048 cells in Matrigel (BomTac:NMRI-Foxn1nu and 5 × 10^6 NCI-H929 cells in Matrigel (CB17/Icr-Prkdc(scid)/IcrCrl). Tumor diameters were measured with a caliper three times a week. The volume of each tumor [in mm^3] was calculated according to the formula “tumor volume = length × diameter^2 × π/6.” To monitor side effects of treatment, mice were inspected daily for abnormalities and body weight was determined three times per week. Animals were sacrificed when the tumors reached a size of 1500 mm^3. […] Tumors were reported as regressing when the tumor volume at a given day was below the tumor volume at treatment start.

[2] = Relative plasma protein binding by shift in EC50 in a caspase induction assay, minipig; format: in vitro ADME; conditions: minipig vs human
Dog IV PK = conditions: dosed at 0.5 mg/kg
Procedure: (§4) For PK analysis, mice and dogs were administered intravenously with compound formulated either in 10% ethanol and 10% Cremophor EL for mice or in 50% ethanol and 50% PEG500 for dogs. Plasma samples were obtained at predefined time points and compound concentrations in plasma were measured by quantitative HPLC-MS/MS using an internal standard. Calibration and quality control samples were prepared using blank plasma from untreated animals. Samples were precipitated with acetonitrile and injected into a HPLC system (Agilent 1200). […] The HPLC was interfaced by ESI operated in positive ionization mode to a triple quadrupole mass spectrometer (6500+ Triple Quad System, SCIEX) operated in multiple reaction monitoring mode. Chromatograms were analyzed with Analyst (SCIEX) and pharmacokinetic parameters were calculated by noncompartmental analysis using proprietary software.

OATP1B1/ABCC2 = experiment: Transporter substrate assessment; format: in vitro ADME
[3] = NCI-H929 subcutaneous multiple myeloma xenograft model; format: in vivo, mouse; conditions: female, CB17/Icr-Prkdc(scid)/IcrCrl, mouse, in vivo, single dose IV, NCI-H929 xenograft study
Procedure: (§3) Caspase-Glo 3/7 Assay (PROMEGA #G8090) was performed according to manufacturer’s instructions using 200 ng of sample lysate in a total volume of 100 μL per well. 100 μL of the GLO reagent were added, mixed, and incubated for 90 min at room temperature. The plate was measured on an EnSpireTM Plate reader (luminescence, 0.1s).
as §2

[4] = tested on: NCI-H929 cell line-derived MM xenograft; experiment: as above; format: in vivo, mouse; conditions: 60 and 80 mg/kg, single dose IV
Procedure: as §3, §2

[5] = Relative plasma protein binding by shift in EC50 in a caspase induction assay, rat; format: in vitro ADME; conditions: rat vs human
[6] = Metabolic stability in hepatocytes, dog; format: in vitro ADME; conditions: incubated with 50% of human serum
[7] = Relative plasma protein binding by shift in EC50 in a caspase induction assay, dog; format: in vitro ADME; conditions: dog vs human
[8] = Metabolic stability in hepatocytes, minipig; format: in vitro ADME; conditions: incubated with 50% of human serum
Plasma protein binding = format: in vitro ADME; conditions: above the limit of quantification of the assay
[9] = Metabolic stability in hepatocytes, human; format: in vitro ADME; conditions: incubated with 50% of human serum
[10] = Metabolic stability in hepatocytes, mouse; format: in vitro ADME; conditions: incubated with 50% of human serum
Bcl-2 = Bcl-2 (Homo sapiens, UniProt P10415); experiment: FPA assay, Bcl-2; format: binding
Sequence of Bcl-2 (P10415 whole entry, species assumed): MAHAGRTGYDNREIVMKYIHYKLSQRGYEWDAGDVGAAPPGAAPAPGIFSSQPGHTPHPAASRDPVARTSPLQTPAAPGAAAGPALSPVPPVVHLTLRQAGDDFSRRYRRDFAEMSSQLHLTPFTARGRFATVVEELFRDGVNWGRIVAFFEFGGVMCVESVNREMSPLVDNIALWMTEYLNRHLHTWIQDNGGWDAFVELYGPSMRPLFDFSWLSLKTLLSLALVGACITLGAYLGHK

Aqueous solubility = format: physicochemical; conditions: aqueous solution; at pH 7.8
[11] = Metabolic stability in hepatocytes, rat; format: in vitro ADME; conditions: incubated with 50% of human serum
Bcl-XL = Bcl-XL (Homo sapiens, UniProt Q07817); experiment: FPA assay, Bcl-XL; format: binding
Sequence of Bcl-XL (Q07817 whole entry, species assumed): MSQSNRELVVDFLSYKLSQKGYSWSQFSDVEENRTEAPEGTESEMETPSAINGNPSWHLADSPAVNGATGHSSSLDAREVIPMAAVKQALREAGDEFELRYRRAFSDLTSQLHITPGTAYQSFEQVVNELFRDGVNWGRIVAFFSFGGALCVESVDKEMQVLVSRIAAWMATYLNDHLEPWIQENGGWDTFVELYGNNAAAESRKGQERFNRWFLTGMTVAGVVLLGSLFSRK

Excretion study in rat = format: in vivo
[12] = mouse, in vivo; cited from earlier work
[13] = tested on: A427 cell line-derived NSCLC xenograft; experiment: A427 NSCLC subcutaneous xenograft model; format: in vivo, mouse
Procedure: as §1, §2

A427 cells = experiment: cells; conditions: Homo sapiens, A-427, read-out: A427 GI50
Procedure: (§5) NCI-H1048 were cultured in custom medium prepared by PanBioTech containing DMEM/F12 + 5% fetal calf serum, 0.005 mg/mL insulin, 0.01 mg/mL transferrin, 30 nM sodium selenite, 10 nM hydrocortisone, 10 nM β-estradiol and 4.5 mM 2 mM L-glutamine. […] All cell lines were cultured at 37 °C with 5% CO2 in a humidified incubator and have been regularly tested negatively for mycoplasm contamination.
(§6) Suspension cells were plated immediately before compound addition. Adherent cell lines were incubated overnight at 37 °C in a tissue culture incubator prior to compound addition. Compounds were added in triplicates using an HP D300e Digital Dispenser (Hewlett-Packard) or manually at the concentrations indicated and total volumes were normalized using dimethyl sulfoxide (DMSO) backfill, with final DMSO concentration of 0.5%. Control wells were treated with DMSO only.

NCI-H1048 cells = experiment: cells; conditions: Homo sapiens, NCI-H1048, read-out: NCI-H1048 GI50
Procedure: as §5, §6

NCI-H1048 SCLC xenograft = conditions: topotecan at 2.5 mg/kg q3/4d
Procedure: Female BomTac:NMRI-Foxn1nu mice and CB17/Icr-Prkdc(scid)/IcrCrl and were obtained from Taconic Denmark at an age of 6–8 weeks. After arrival of the local animal facility at Boehringer Ingelheim RCV GmbH & Co KG mice were allowed to adjust to housing conditions at least for 5 days before the start of the experiment. […] To establish subcutaneous tumors mice were injected with 5 × 10^6 A427cells in Matrigel (CB17/Icr-Prkdc(scid)/IcrCrl), 1 × 10^6 NCI-H1048 cells in Matrigel (BomTac:NMRI-Foxn1nu and 5 × 10^6 NCI-H929 cells in Matrigel (CB17/Icr-Prkdc(scid)/IcrCrl). Tumor diameters were measured with a caliper three times a week. The volume of each tumor [in mm^3] was calculated according to the formula “tumor volume = length × diameter^2 × π/6.” To monitor side effects of treatment, mice were inspected daily for abnormalities and body weight was determined three times per week. Animals were sacrificed when the tumors reached a size of 1500 mm^3. […] Tumors were reported as regressing when the tumor volume at a given day was below the tumor volume at treatment start.

[14] = docetaxel at 10 mg/kg q7d, single agent

Procedure for Mouse IV PK: as §4

Q: For `COc1c(OCC2CCOCC2)cc(N2C[C@@H](C)n3c(c(CCCOc4cc(C)c(Cl)c(C)c4)c4ccc(Cl)c(-c5c(C)nc(C)nc5C)c43)C2=O)c2c1cc(C(=O)O)n2C` [Compound 26, (R)-7-(7-Chloro-10-(3-(4-chloro-3,5-dimethylphenoxy)propyl)-4-methyl-1-oxo-6-(2,4,6-trimethylpyrimidin-5-yl)-3,4-dihydropyrazino[1,2-a]indol-2(1H)-yl)-4-methoxy-1-methyl-5-((tetrahydro-2H-pyran-4-yl)methoxy)-1H-indole-2-carboxylic Acid], which AUC ([1]; 26 at 60 mg/kg q7d IV) is on record?
A: The AUC was 552 µM·h.

Q: What about the “plasma protein binding lower than in human” value [2] of the same compound?
A: The value was ~2 fold.

Q: And the AUC/Dose (Dog IV PK)?
A: Its AUC/Dose is 3860 nM*h/mpk.

Q: And the CL (Dog IV PK)?
A: Its CL is 5.2 mL/min/kg.

Q: And the “CL (% hep blood flow)” value (Dog IV PK)?
A: The value was 17 % hep blood flow.

Q: What about the “substrate of OATP1B1/ABCC2” value (OATP1B1/ABCC2) of the same compound?
A: The value was “substrate”.

Q: What about the AUC ([3]; 60 mg/kg) of the same compound?
A: Its AUC is 442 µM·h.

Q: What about the AUC ([3]; 80 mg/kg) of the same compound?
A: The AUC was 635 µM·h.

Q: What about the “change in the median weight of the mice” value [4] of the same compound?
A: Its value is “no significant change”.

Q: What about the “plasma protein binding lower than human” value [5] of the same compound?
A: The value was 3 fold.

Q: What about the “metabolic stability in hepatocytes” value [6] of the same compound?
A: The value was 19 % Qh.

Q: And the “plasma protein binding lower than in human” value [7]?
A: The value was ~2 fold.

Q: And the “metabolic stability in hepatocytes” value [8]?
A: The value was 35 % Qh.

Q: And the fraction unbound (Plasma protein binding)?
A: The fraction unbound was < 0.002.

Q: What about the “metabolic stability in hepatocytes” value [9] of the same compound?
A: The value was 12 % Qh.

Q: And the CL (Mouse IV PK; mouse IV, dosed at 25 mg/kg)?
A: The CL was 2.2 mL/min/kg.

Q: What about the “reduction in clearance from compound 20” value (Mouse IV PK; mouse IV, relative to compound 20) of the same compound?
A: Its value is 20 fold.

Q: What about the Vd (Mouse IV PK; mouse, plasma, iv, 25 mg/kg) of the same compound?
A: The Vd was < 0.1 L/kg.

Q: And the clearance (Mouse IV PK; mouse, plasma, iv, 25 mg/kg)?
A: Its clearance is 2.2 mL/min/kg.

Q: And the half-life (Mouse IV PK; mouse, plasma, iv, 25 mg/kg)?
A: The half-life was 3.7 h.

Q: And the “metabolic stability in hepatocytes” value [10]?
A: The value was 40 % Qh.

Q: And the Ki (Bcl-2)?
A: Its Ki is 1.8 µM.

Q: What about the solubility (Aqueous solubility) of the same compound?
A: Its solubility is 15 mg/mL (≈ 17.3 mM).

Q: What about the “metabolic stability in hepatocytes” value [11] of the same compound?
A: The value was 22 % Qh.

Q: And the Ki (Bcl-XL)?
A: Its Ki is 36 µM.

Q: What about the “biliary clearance as share of the total clearance” value (Excretion study in rat) of the same compound?
A: The value was 60–75%.

Q: With `Cc1c(-c2c(-c3ccc(F)o3)sc3ncnc(O[C@H](Cc4ccccc4OCc4ccnn4CC(F)(F)F)C(=O)O)c23)ccc(OCCN2CCN(C)CC2)c1Cl` [Compound S63845] as the compound, how does the “maximum tolerated dose lower than in wild-type mice” value [12] read?
A: Its value is ~3 fold.

Q: Which AUC ([1]; docetaxel at 10 mg/kg q7d) does the source give for `CC(=O)O[C@@]12CO[C@@H]1C[C@H](O)[C@@]1(C)C(=O)[C@H](O)C3=C(C)[C@@H](OC(=O)[C@H](O)[C@@H](NC(=O)OC(C)(C)C)c4ccccc4)C[C@@](O)([C@@H](OC(=O)c4ccccc4)[C@H]21)C3(C)C` [Docetaxel, docetaxel] here?
A: The AUC was 15.8 µM·h.

Q: What about the “TGI d21” value [13, 14] of the same compound?
A: Its value is 112%.

Q: And the “Tumor regressions d21” value [13, 14]?
A: Its value is 8 x/8.

Q: What about the “tumor outgrowth began around day after treatment start” value ([13]; docetaxel at 10 mg/kg q7d alone) of the same compound?
A: The value was ~15 days.

Q: And the GI50 (A427 cells)?
A: The GI50 was 4.4 µM.

Q: With `CC[C@@]1(O)C(=O)OCc2c1cc1n(c2=O)Cc2cc3c(CN(C)C)c(O)ccc3nc2-1` [Topotecan, topotecan] as the compound, how does the GI50 (NCI-H1048 cells) read?
A: The GI50 was 0.014 µM.

Q: What about the “TGI d16” value (NCI-H1048 SCLC xenograft) of the same compound?
A: Its value is 94%.

Q: And the “Tumor regression d16” value (NCI-H1048 SCLC xenograft)?
A: Its value is 1 x/8.
